The term Ki denotes the dissociation constant of the complex between target and ligand, obtained from inhibition or displacement.

The values below come from ChEMBL document CHEMBL1146280, “New competitive inhibitors of cytosolic (NADH-dependent) rabbit muscle glycerophosphate dehydrogenase” (Bioorg Med Chem Lett, 2007).

Where only a bound is given, the exact number is not on record here.

Experiment [1] is described as follows: Inhibition of class I FBA. The arrangement: species or system Homo sapiens.
Experiment [2] can be described thus: Inhibition of class II FBA.
For another experiment, the species on record is Oryctolagus cuniculus. Nature of the experiment: Inhibition of rabbit muscle NADH-dependent cytosolic glycerophosphate dehydrogenase.

Take `O=C(COP(=O)(O)O)NO` [PHOSPHOGLYCOLOHYDROXAMATE]: the Ki in experiment [1] was 1 µM; in experiment [2] it was 0.01 µM; in the experiment listed under Oryctolagus cuniculus, 10 µM.
For `O=C(CCP(=O)(O)O)NO`, in that order: above 500 µM, 145 µM and 6 µM.
On the same counts, the results for `NNC(=O)COP(=O)(O)O` [PHOSPHORIC ACID MONOHYDRAZINOCARBONYLMETHYL ESTER] are 370 µM, 0.34 µM and above 500 µM.
Turning to `N/C(COP(=O)(O)O)=N/O`, the Ki in experiment [1] is above 1000 µM; in experiment [2], 2.3 µM; in the experiment listed under Oryctolagus cuniculus it was 100 µM.
For `O=C(CC(O)P(=O)(O)O)NO` (stereo not drawn), the Ki in experiment [1] was 180 µM; in experiment [2], 418 µM; in the experiment filed under Oryctolagus cuniculus it was 40 µM.
For `NC(CC(=O)NO)P(=O)(O)O` (stereo not drawn), in that order: 9000 µM, 3000 µM and above 500 µM.
